ChEMBL document CHEMBL1201862, “PubChem BioAssay data set” (2004)
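Cells were grown in 96-well plates and exposed to each compound for 48 hours at five concentrations; endpoints were interpolated linearly between bracketing concentrations, or set to the highest concentration if not reached. GI50: concentration for 50% inhibition of growth.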 Calls of active or inactive are those of the source. Cut-off read from the data, not from the text of the source: active = GI50 up to about 1.1 µM and inactive = higher.

Key:
Assay in all cases: NCI-60 cell line screen, 48 h
[1] = tested on: OVCAR-4
[2] = tested on: SK-OV-3
[3] = tested on: LOX IMVI
[4] = tested on: U-251
[5] = tested on: NCI-H522
[6] = tested on: HT-29
[7] = tested on: SW-620
[8] = tested on: A498
[9] = tested on: RPMI-8226
[10] = tested on: EKVX
[11] = tested on: NCI-H226
[12] = tested on: NCI/ADR-RES
[13] = tested on: MOLT-4
[14] = tested on: SF-268
[15] = tested on: A549
[16] = tested on: SNB-19
[17] = tested on: Malme-3M
[18] = tested on: T47D
[19] = tested on: DU-145
[20] = tested on: SR

Structure (SMILES)	GI50 [1]	GI50 [2]	GI50 [3]	GI50 [4]	GI50 [5]	GI50 [6]	GI50 [7]	GI50 [8]	GI50 [9]	GI50 [10]	GI50 [11]	GI50 [12]	GI50 [13]	GI50 [14]	GI50 [15]	GI50 [16]	GI50 [17]	GI50 [18]	GI50 [19]	GI50 [20]
CNC(=O)C(C)C1CCC2(C)C=CC(=O)C(C)=C2C1O (centres undefined)	> 100 µM (inactive)	> 100 µM (inactive)	> 100 µM (inactive)	> 44.8 µM (inactive)	> 100 µM (inactive)	> 100 µM (inactive)	> 57.4 µM (inactive)	> 100 µM (inactive)	> 100 µM (inactive)	> 100 µM (inactive)	> 100 µM (inactive)	> 47 µM (inactive)	> 100 µM (inactive)	> 100 µM (inactive)	> 48.8 µM (inactive)	> 100 µM (inactive)				
CN(C)CN1C(=O)/C(=N\n2c(S)nnc2-c2ccncc2)c2ccccc21	17.1 µM (inactive)	31.7 µM (inactive)	22.9 µM (inactive)	38.8 µM (inactive)	16.6 µM (inactive)	22.2 µM (inactive)	18.8 µM (inactive)	> 100 µM (inactive)		> 100 µM (inactive)	> 100 µM (inactive)	41.9 µM (inactive)	12.1 µM (inactive)	57.5 µM (inactive)	55 µM (inactive)	54.5 µM (inactive)	> 100 µM (inactive)	30.8 µM (inactive)	26.5 µM (inactive)	
Cc1ncc2c(n1)CCC1=C2OS(=O)(=O)CC1N(C)C (centres undefined)	> 100 µM (inactive)	> 100 µM (inactive)	> 100 µM (inactive)	> 100 µM (inactive)	31.8 µM (inactive)	> 100 µM (inactive)	> 100 µM (inactive)	58.2 µM (inactive)	> 100 µM (inactive)	> 100 µM (inactive)	> 100 µM (inactive)		> 100 µM (inactive)	> 100 µM (inactive)	> 100 µM (inactive)	> 100 µM (inactive)		63.1 µM (inactive)	> 100 µM (inactive)	> 100 µM (inactive)
CC(=O)c1cc2sc3ccccc3c2[nH]1	> 100 µM (inactive)	> 100 µM (inactive)		> 100 µM (inactive)	> 100 µM (inactive)	> 100 µM (inactive)	> 100 µM (inactive)	> 100 µM (inactive)	16.3 µM (inactive)			> 100 µM (inactive)	> 100 µM (inactive)	> 100 µM (inactive)	> 100 µM (inactive)	> 100 µM (inactive)	> 100 µM (inactive)	> 100 µM (inactive)	> 100 µM (inactive)	
O=C(CCC(=O)OCC1OC(O)(CC2OC(CO)C(O)C(O)C2O)C(O)C1O)OCc1ccccc1 (centres undefined)	> 100 µM (inactive)	> 100 µM (inactive)	> 100 µM (inactive)	> 100 µM (inactive)	> 100 µM (inactive)	> 100 µM (inactive)	> 100 µM (inactive)	> 100 µM (inactive)		> 100 µM (inactive)	> 100 µM (inactive)	> 100 µM (inactive)		> 100 µM (inactive)	> 100 µM (inactive)	> 100 µM (inactive)	> 100 µM (inactive)	> 100 µM (inactive)	> 100 µM (inactive)	
CC(C)=CC(O)C(C(O)CCC1(C)OCCO1)S(=O)(=O)c1ccccc1 (centres undefined)	> 100 µM (inactive)	> 100 µM (inactive)	> 100 µM (inactive)	> 100 µM (inactive)	> 100 µM (inactive)		> 100 µM (inactive)	> 100 µM (inactive)	> 100 µM (inactive)	> 100 µM (inactive)	> 100 µM (inactive)	> 100 µM (inactive)		> 100 µM (inactive)	> 100 µM (inactive)	> 100 µM (inactive)	> 100 µM (inactive)	> 100 µM (inactive)		
O=c1cnnc2sc(=S)[nH]n12	16.7 µM (inactive)		4.13 µM (inactive)	22.1 µM (inactive)	8.45 µM (inactive)	39.8 µM (inactive)	12.4 µM (inactive)	> 100 µM (inactive)	13.7 µM (inactive)	> 100 µM (inactive)		30.1 µM (inactive)	15 µM (inactive)	5.04 µM (inactive)	46.7 µM (inactive)	27.4 µM (inactive)	31 µM (inactive)		> 100 µM (inactive)	22.4 µM (inactive)
CC(C)C(=O)Nc1cc(C(F)(F)F)ccc1[N+](=O)[O-]	> 100 µM (inactive)	> 100 µM (inactive)	> 100 µM (inactive)	> 100 µM (inactive)	> 100 µM (inactive)	> 100 µM (inactive)	> 100 µM (inactive)	> 100 µM (inactive)	72.8 µM (inactive)	> 100 µM (inactive)	> 100 µM (inactive)	> 100 µM (inactive)	> 100 µM (inactive)	> 100 µM (inactive)	> 100 µM (inactive)	> 100 µM (inactive)	68.5 µM (inactive)	81.5 µM (inactive)	> 100 µM (inactive)	
O=C1OC(=O)c2c1cc1cc3c(cc1c2-c1ccc2c(c1)OCO2)OCO3	> 100 µM (inactive)			> 100 µM (inactive)	> 100 µM (inactive)	> 100 µM (inactive)	> 100 µM (inactive)	> 100 µM (inactive)	> 100 µM (inactive)		> 100 µM (inactive)	> 100 µM (inactive)	> 100 µM (inactive)	> 100 µM (inactive)	> 100 µM (inactive)	> 100 µM (inactive)	> 100 µM (inactive)	> 100 µM (inactive)	> 100 µM (inactive)	
Cc1cc(C)c(S(=O)(=O)N(CCCCCCN)OCCCN)c(C)c1	20.2 µM (inactive)	18.4 µM (inactive)	12.2 µM (inactive)	16.2 µM (inactive)	13 µM (inactive)	15.1 µM (inactive)	17.9 µM (inactive)		31.6 µM (inactive)	15.3 µM (inactive)	19.6 µM (inactive)	24.3 µM (inactive)	15.3 µM (inactive)	16.5 µM (inactive)	70 µM (inactive)	19.3 µM (inactive)	10.3 µM (inactive)	17.7 µM (inactive)	16.1 µM (inactive)	
CCCCCCCCCCCCOCCOCCOCCOCCOCCOCC(=O)NC(Cc1ccccc1)C(=O)Oc1ccc([N+](=O)[O-])cc1 (centres undefined)	40.9 µM (inactive)	64.9 µM (inactive)	29.8 µM (inactive)	34.2 µM (inactive)	29.9 µM (inactive)	33.4 µM (inactive)	36.2 µM (inactive)	39.6 µM (inactive)	23.2 µM (inactive)	61.2 µM (inactive)	59 µM (inactive)	37.5 µM (inactive)	23.2 µM (inactive)	50.9 µM (inactive)	43 µM (inactive)	47.3 µM (inactive)	29.6 µM (inactive)	40 µM (inactive)		23.3 µM (inactive)
COc1ccc(CC2(O)C3CC4CCC2C4C3)cc1 (centres undefined)	> 100 µM (inactive)	> 100 µM (inactive)	> 100 µM (inactive)	> 100 µM (inactive)	88.3 µM (inactive)	58.1 µM (inactive)	> 100 µM (inactive)		> 100 µM (inactive)	49.8 µM (inactive)	88.1 µM (inactive)	44.7 µM (inactive)	45 µM (inactive)	> 100 µM (inactive)	79.4 µM (inactive)	> 100 µM (inactive)	> 100 µM (inactive)			58.7 µM (inactive)
Nc1cc(O)c2cc(/N=N/c3ccc(/N=N/c4ccc(/N=N/c5ccc6cc(S(=O)(=O)O)cc(S(=O)(=O)O)c6c5)c5ccccc45)c4cc(S(=O)(=O)O)ccc34)c(S(=O)(=O)O)cc2c1	> 100 µM (inactive)	> 100 µM (inactive)	> 100 µM (inactive)	> 100 µM (inactive)	98.6 µM (inactive)	> 90.2 µM (inactive)	> 100 µM (inactive)	> 100 µM (inactive)	> 100 µM (inactive)	> 100 µM (inactive)	36.7 µM (inactive)	> 100 µM (inactive)	64.7 µM (inactive)	> 100 µM (inactive)	96.8 µM (inactive)	> 100 µM (inactive)	> 100 µM (inactive)			
CC1CCC2C(C(=O)O[C@H]3C4CCO[C@@H](OC5OC(CO)C(O)C(O)C5O)C4[C@@]4(CO)O[C@@H]34)=CO[C@@H](OC3OC(CO)C(O)C(O)C3O)C12 (some centres undefined)		> 10 µM (inactive)	> 10 µM (inactive)	> 10 µM (inactive)		> 10 µM (inactive)	> 10 µM (inactive)	> 10 µM (inactive)	> 10 µM (inactive)	> 10 µM (inactive)	> 10 µM (inactive)		> 10 µM (inactive)	> 10 µM (inactive)	> 10 µM (inactive)	> 10 µM (inactive)	> 10 µM (inactive)	> 10 µM (inactive)	> 10 µM (inactive)	> 10 µM (inactive)
COc1cc(C2c3cc4c(cc3[C@@H](Oc3ccc(F)cc3)C3COC(=O)[C@H]23)OCO4)cc(OC)c1O (some centres undefined)	6.79 µM (inactive)		0.578 µM (active)	0.365 µM (active)	0.217 µM (active)	0.284 µM (active)	0.481 µM (active)	0.236 µM (active)	0.461 µM (active)	> 43.8 µM (inactive)	0.417 µM (active)	0.22 µM (active)	0.359 µM (active)	0.679 µM (active)	0.405 µM (active)		0.653 µM (active)			
COC(=O)C1OC2(CCCC3CC32)O[C@H]1C(=O)OC (some centres undefined)	> 100 µM (inactive)	> 100 µM (inactive)	> 100 µM (inactive)	> 100 µM (inactive)	> 100 µM (inactive)	> 100 µM (inactive)	> 100 µM (inactive)		> 100 µM (inactive)	> 100 µM (inactive)	> 100 µM (inactive)	> 100 µM (inactive)	> 100 µM (inactive)	> 100 µM (inactive)	> 100 µM (inactive)	> 100 µM (inactive)	> 100 µM (inactive)		> 100 µM (inactive)	> 100 µM (inactive)
